Measured values as given in patent publication US10815274B2, “Immunogenic WT-1 peptides and methods of use thereof” (Memorial Sloan Kettering Cancer Center, priority 2012, dated 2020).
Where a SMILES comes first, the peptide text is derived from it.

Tests used:
[1] = tested on: WT1 peptide loaded autologous APC; assay: Cr51 release assay, cytotoxic CTL response vs peptide loaded autologous APC; type: cell-based, human; conditions: 50:1 E:T
WT1- leukemia = assay: Cr51 release assay, cytotoxic CTL response vs WT1- leukemia; type: cell-based, human; conditions: 50:1 E:T
Source text: (§1) Twenty-four primary leukemic cells and 1 leukemic cell line were characterized for their expression of WT1 by intracellular FACS staining using murine anti-human WT1 monoclonal antibodies (Neomarkers, Fremont, Calif.) as previously described (32,38) The WT1+ leukemias included blast cells from 11 primary AMLs, 3 primary ALLs and 1B-cell precursor ALL cell line. Ten WT1-leukemias, were used as controls, and included 3 B-cell precursor ALLs and 7 AMLs.

WT1- autologous APC = assay: Cr51 release assay, cytotoxic CTL response vs unmodified autologous APC; type: cell-based, human; conditions: 50:1 E:T
[2] = tested on: WT1+ allo APC with restricting HLA allele loaded with WT1 peptide; assay: Cr51 release assay, cytotoxic CTL response vs peptide loaded allogeneic APC sharing restricting HLA allele (HLA restriction); conditions: for Cytotoxic CTL response, % vs WT1+ allo APC with restricting HLA allele loaded with WT1 peptide: 50:1 E:T
[3] = tested on: WT1- allo APC with restricting HLA allele; assay: Cr51 release assay, cytotoxic CTL response vs unloaded allogeneic APC sharing restricting HLA allele; type: cell-based, human; conditions: 50:1 E:T
WT1+ leukemia = assay: Cr51 release assay, cytotoxic CTL response vs WT1+ leukemia expressing restricting HLA allele; type: cell-based, human; conditions: 50:1 E:T
Source text: as §1
PHA blasts were not available from every patient that provided leukemia blasts for this study.

SMILES | Cytotoxic CTL response, % vs WT1 peptide loaded autologous APC ([1]; HLA allele A0201) [%] | Cytotoxic CTL response, % vs WT1- leukemia (WT1- leukemia; HLA allele A0201) [%] | Cytotoxic CTL response, % vs WT1- autologous APC (WT1- autologous APC; HLA allele A0201) [%] | Cytotoxic CTL response, % vs WT1+ allo APC with restricting HLA allele loaded with WT1 peptide ([2]; HLA allele A0201) [%] | Cytotoxic CTL response, % vs WT1- allo APC with restricting HLA allele ([3]; HLA allele A0201) [%] | Cytotoxic CTL response, % vs WT1+ leukemia (WT1+ leukemia; HLA allele A0201) [%] | Cytotoxic CTL response, % vs WT1 peptide loaded autologous APC ([1]; HLA allele A0101) [%] | Cytotoxic CTL response, % vs WT1- leukemia (WT1- leukemia; HLA allele A0101) [%] | Cytotoxic CTL response, % vs WT1- autologous APC (WT1- autologous APC; HLA allele A0101) [%] | Cytotoxic CTL response, % vs WT1+ allo APC with restricting HLA allele loaded with WT1 peptide ([2]; HLA allele A0101) [%] | Cytotoxic CTL response, % vs WT1- allo APC with restricting HLA allele ([3]; HLA allele A0101) [%] | Cytotoxic CTL response, % vs WT1+ leukemia (WT1+ leukemia; HLA allele A0101) [%] | also measured
CC(C)C[C@H](NC(=O)[C@H](C)NC(=O)[C@H](CC(N)=O)NC(=O)[C@H](CC(C)C)NC(=O)[C@H](CC(=O)O)NC(=O)[C@@H](N)CCCNC(=N)N)C(=O)N[C@@H](CC(C)C)C(=O)N1CCC[C@H]1C(=O)N[C@@H](C)C(=O)N[C@H](C(=O)O)C(C)C [SEQ ID NO: 152] (H-RDLNALLPAV-OH; N-terminus and C-terminus assumed) | 51 | 0 | 2 | 31 | 4 | 9 | – | – | – | – | – | – | Cytotoxic CTL response, % vs WT1 peptide loaded autologous APC ([1]; HLA allele B5701): 44%; Cytotoxic CTL response, % vs WT1- autologous APC (WT1- autologous APC; HLA allele B5701): 3%; Cytotoxic CTL response, % vs WT1+ allo APC with restricting HLA allele loaded with WT1 peptide ([2]; HLA allele B5701): 22%; Cytotoxic CTL response, % vs WT1- allo APC with restricting HLA allele ([3]; HLA allele B5701): 1%
CC(C)C[C@H](NC(=O)[C@H](CC(C)C)NC(=O)[C@H](CC(C)C)NC(=O)[C@H](C)NC(=O)[C@H](CCC(N)=O)NC(=O)[C@H](CO)NC(=O)CNC(=O)[C@@H](NC(=O)[C@@H](N)CS)[C@@H](C)O)C(=O)O [SEQ ID NO: 167] (H-CTGSQALLL-OH; N-terminus and C-terminus assumed) | – | – | – | – | – | – | 21 | 3 | 0 | 26 | 0 | 33 | –
C[C@@H](O)[C@H](NC(=O)[C@@H](NC(=O)[C@H](Cc1c[nH]cn1)NC(=O)[C@H](CC(N)=O)NC(=O)[C@H](CC(=O)O)NC(=O)[C@H](CO)NC(=O)[C@H](CCC(=O)O)NC(=O)[C@H](Cc1ccc(O)cc1)NC(=O)CN)[C@@H](C)O)C(=O)O [SEQ ID NO: 178] (H-GYESDNHTT-OH; N-terminus and C-terminus assumed) | – | – | – | – | – | – | 27 | 0 | 0 | 26 | 0 | 33 | Cytotoxic CTL response, % vs WT1 peptide loaded autologous APC ([1]; HLA allele B3501): 35%; Cytotoxic CTL response, % vs WT1- autologous APC (WT1- autologous APC; HLA allele B3501): 0%; Cytotoxic CTL response, % vs WT1+ allo APC with restricting HLA allele loaded with WT1 peptide ([2]; HLA allele B3501): 23%; Cytotoxic CTL response, % vs WT1- allo APC with restricting HLA allele ([3]; HLA allele B3501): 0%
CC(C)C[C@H](NC(=O)[C@@H](NC(=O)[C@H](C)NC(=O)CNC(=O)[C@H](CC(C)C)NC(=O)[C@@H](N)CC(N)=O)[C@@H](C)O)C(=O)N[C@@H](CCCCN)C(=O)NCC(=O)N[C@H](C(=O)O)C(C)C [SEQ ID NO: 175] (H-NLGATLKGV-OH; N-terminus and C-terminus assumed) | 18 | 2 | 1 | 14 | 1 | 19 | 19 | – | 2 | 17 | 1 | – | –
CC(C)C[C@H](N)C(=O)N[C@@H](CC(=O)O)C(=O)N[C@@H](Cc1ccccc1)C(=O)N[C@@H](C)C(=O)N1CCC[C@H]1C(=O)N1CCC[C@H]1C(=O)NCC(=O)N[C@@H](C)C(=O)N[C@@H](CO)C(=O)N[C@@H](C)C(=O)N[C@@H](Cc1ccc(O)cc1)C(=O)O [SEQ ID NO: 156] (H-LDFAPPGASAY-OH; N-terminus and C-terminus assumed) | – | – | – | – | – | – | – | – | – | – | – | – | Cytotoxic CTL response, % vs WT1 peptide loaded autologous APC ([1]; HLA allele DRB10402): 73%; Cytotoxic CTL response, % vs WT1- leukemia (WT1- leukemia; HLA allele DRB10402): 0%; Cytotoxic CTL response, % vs WT1- autologous APC (WT1- autologous APC; HLA allele DRB10402): 0%; Cytotoxicity of T-cells restricted by HLA A0201 against loaded targets ([2]; HLA A0201): able to lyse; Cytotoxic CTL response, % vs WT1+ allo APC with restricting HLA allele loaded with WT1 peptide ([2]; HLA allele DRB10402): 71%; Cytotoxicity of class II HLA-restricted T-cells against loaded targets ([2]; targets sharing the alleles DRB1 0402 and DQB1 0302): selectively cytotoxic; Cytotoxic CTL response, % vs WT1- allo APC with restricting HLA allele ([3]; HLA allele DRB10402): 1%; Cytotoxic CTL response, % vs WT1+ leukemia (WT1+ leukemia; HLA allele DRB10402): 40%
